Reference: patent US20240182492A1, “AZAHETEROARYL COMPOUND, PREPARATION METHOD THEREFOR, AND APPLICATION THEREOF” (SHANGHAI BLUERAY BIOPHARMA CO., LTD., priority 2021, published 2024)

Assays:
[1] = test system: B-cell non-Hodgkin lymphoma cells KARPAS-422; assay: Cell proliferation analysis, KARPAS-422, 13 days, CellTiter-Glo; assay type: cell-based, Human
Description: Example 55: Cell Proliferation Analysis
Human B-cell non-Hodgkin lymphoma cells KARPAS-422 S were cultured in culture flasks using standard cell culture conditions. The culture medium contains 15% fetal bovine serum (FBS, Invitrogen, product number 10099-141), 1% penicillin/streptomycin solution (P/S) RPMI-1640 (Invitrogen, product number 11875), and the culture flask is placed and cultured in a sterile incubator at 37° C., 95% relative humidity, and 5% CO2. In order to detect the effect of PRC2 inhibitors on cell proliferation, cells in the exponential growth phase were seeded into 96-well plates (Corning, product number 3904) at a density of 1×10^4 cells/well, and 100 μL of medium was added to each well. Subsequently, the compounds disclosed herein at different concentrations were added to the wells seeded with cells (9 concentration gradients were set for each compound, and the highest detection concentration was 10 μM, 3-fold gradient dilution), and 2 repeats in parallel were set for each treatment concentration. The final concentration of DMSO is 0.5%. Then the number of surviving cells was counted with Vi-CELL (Beckman Coulter) every 3-4 days. The cells counted each time were seeded into a new 96-well plate at the same density (1×10^4 cells/well). The wells were supplemented with fresh medium to 100 μL, and different concentrations of the compound were added at the same time. The cells were cultured until the 13th day, on which 100 μL of CellTiter-Glo (CellTiter-GloCellTiter-GloCellTiter-GloCTG) (Promega, Product No. G7573) was added to each well. The plate was placed for 10-20 minutes in the dark at room temperature, and Molecular Devices and SpectraMax i3X were used to read the luminous signal. The data were fitted to a dose-response curve using GraphPad prisim5 and the IC50 values of the tested compounds were obtained.

[2] = target: T1, EED protein (full-length, His6 tag) binding to H3K27me3 polypeptide (Homo sapiens, UniProt O75530); assay: AlphaScreen evaluation of blocking the binding of EED to H3K27Me3; conditions: EED / biotinylated H3K27me3 peptide competition
T1 construct: The full-length EED protein (441 amino acids) with His6 tag
T1 sequence (O75530 whole entry): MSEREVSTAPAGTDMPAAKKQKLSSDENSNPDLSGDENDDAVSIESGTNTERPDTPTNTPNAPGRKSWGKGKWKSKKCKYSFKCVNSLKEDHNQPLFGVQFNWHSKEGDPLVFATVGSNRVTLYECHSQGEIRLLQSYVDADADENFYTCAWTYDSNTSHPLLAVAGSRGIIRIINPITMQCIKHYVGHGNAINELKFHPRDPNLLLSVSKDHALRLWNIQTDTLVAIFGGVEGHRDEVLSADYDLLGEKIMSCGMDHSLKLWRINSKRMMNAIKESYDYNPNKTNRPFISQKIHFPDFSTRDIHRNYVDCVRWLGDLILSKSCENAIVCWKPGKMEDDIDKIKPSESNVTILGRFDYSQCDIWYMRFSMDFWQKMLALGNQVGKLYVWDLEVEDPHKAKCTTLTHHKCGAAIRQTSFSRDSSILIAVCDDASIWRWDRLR
Description: Example 53: Evaluation of the Effect of the Compound in Blocking the Binding of EED to H3K27Me3 by AlphaScreen (a-Screening) Method
First, compound solutions with different concentration gradients are prepared. Compound powder is dissolved in DMSO to form mother liquor. 1.5 μL of the compound mother liquor is taken to 198.5 μL reaction buffer (25 mM HEPES (pH 8.0), 50 mM NaCl, 0.015% Tween 20, 0.5% BSA) and the solution is mix uniformly, and then 3-fold gradient dilution is performed with the above buffer containing 0.75% DMSO. 9 different test concentrations are set for the same compound. 5 μL of compounds with different concentration gradients was taken to ProxiPlate-384 Plus, White detection plate (PerkinElmer, 6008280), and 2 parallel replicates are set for each concentration gradient.
Next, a binding blocking reaction is performed. The full-length EED protein (441 amino acids) with His6 tag is diluted to 60 nM with the above buffer, and the biotinylated polypeptide fragment H3K27me3 (amino acids 19-33) (Biotinylated-H3K27me3) is diluted to 75 nM with the same buffer. 5 μL of 75 nM peptide fragments and 5 μL of 60 nM protein are transferred to the testing wells containing the compound respectively. The testing plate is sealed with a film, and is incubated for 30 minutes at room temperature.
Finally, AlphaScreen method is used for detection. Before use, nickel chelate acceptor beads and streptavidin donor beads (Perkin Elmer, product number 6760619M) are mixed into the above reaction buffer at a ratio of 1:1, and then 5 μL of the above pre-mixed testing solution is added to each testing well. The final concentration of the donor beads and acceptor beads is 5 μg/mL. The testing plate is covered with tin foil and placed at room temperature in the dark for 1 hour. Signals are read using an AlphaScreen detector on a Spectra max i3. The AlphaScreen signal is normalized according to the readings obtained from the positive control (maximum signal control) and negative control (minimum signal control) to give the inhibition rate of different concentrations of the compound. After that, non-linear regression analysis was performed with GraphPad Prism 5, and dose-response equation Y=Bottom+(Top−Bottom)/(1+10^((Log IC50−X)*HillSlope)) is used to make an inhibition curve, obtaining the IC50 value of each compound. […]

[3] = test system: trimethylation level of histone H3K27 in G401 cells; assay: ELISA (H3K27 trimethylation) analysis in G401 cells; assay type: cell-based; conditions: H3K27me3 normalized by H3
Description: Example 54: ELISA (H3K27 Trimethylation) Analysis
Representative compounds of the present disclosure are diluted in DMSO with 3-fold gradient, and 10 concentration gradients are tested per compound. The maximum testing concentration is 10 μM. The compound is diluted 200-fold into G401 cells cultured in 96-well plates (the final concentration of DMSO is 0.5%). After the cells are cultured for 72 hours, the trimethylation level of histone H3K27 is detected by ELISA method.
Histone extraction: compound-treated cells in a 96-well plate are washed 3 times with 1×PBS (10×PBS buffer (80 g NaCl (Sigma, Product No. S3014), 2 g KCl (Sigma, Product No. 60128), 14.4 g Na2HAPO4 (Sigma, Product No. S5136) and 2.4 g KH2PO4 (Sigma, Product No. P9791) are added to 1 L water, pH to 7.4), and 100 μL of 0.4N HCl is added to each well. The 96-well plate is placed at 4° C. and gently shaken for 2 hours to lyse the cells. The cell lysate is then neutralized with 80 μL of neutralization buffer (0.5M disodium hydrogen phosphate, pH 12.5, 2.5 mM DTT; 1% cocktail (Sigma, Product No. P8340) (mixing the cell lysate and neutralization buffer thoroughly).
ELISA detection method: the cell lysates are transferred in parallel to two 384-well assay plates (PerkinElmer, OptiPlate-384HB, Product No. 6007290). One plate is used to detect the trimethylation level of H3K27, and the other plate is used to measure the level of H3. PBS is adjusted to a final volume of 50 μL/well. The wells are coated overnight at 4° C. On the next day, the solution in the wells was discarded. TBST buffer (1 xTBS (10×TBS: 24.2 g Tris (Sigma, Product No. T6066) and 80 g NaCl (Sigma, Product No. S3014) are added to 1 L water, and pH is adjusted to 7.6 with HCl) and 0.1% Tween-20) is used to wash it 5 times, and the water is dried on absorbent papers. 70 μL of blocking buffer (TBST, 5% BSA) is added to the coated reaction wells, and the wells are incubated for 1 hour at room temperature. The blocking buffer was discarded, and the primary antibody is added (30 μL/well). The required primary antibodies are diluted with blocking buffer, and the dilution ratios were as follows: anti-H3K27me3 antibody (Cell Signaling Technology, Product No. 9733), 1:2000 dilution; anti-H3 antibody (Cell Signaling Technology, Product No. 4499), 1:10000 dilution. After adding the primary antibody, the wells are incubated at room temperature for 1 hour. After washing with TBST for 5 times, the water are dried. The secondary antibody (30 μL/well) is added to each reaction well, and the wells are incubated at room temperature for 1 hour. Secondary antibody (anti-rabbit antibody (Jackson ImmunoResearch, Product No. 111-035-003)) is used after dilution 2000-fold in blocking buffer. After 1 hour, it is washed with TBST and dried. 30 μL of ECL substrate (Pierce, Product No. 34080) is added to each well and centrifuged for 30 seconds at 2000 rpm. Signal of each sample is detected using Molecular Devices, SpectraMax. Data processing: H3K27 methylation readings are first normalized by H3 signal. 0.500 DM8)-treated sample is used as a control, and the inhibition percentage of the compound is calculated. The data is fitted to a dose-response curve using the GraphPad prisim5 program, obtaining the IC50 values of the test compounds.

[4] = Homo sapiens, KARPAS-422, 312 h, Karpas-422, 13 days

IC50 [1, 4] [µM] | IC50 [2] [µM] | IC50 ([1]; Karpas-422, 13 days) [µM] | SMILES | IC50 ([3]; Homo sapiens, G-401, 72 h) [µM] | IC50 ([1]; Homo sapiens, KARPAS-422, 312 h) [µM] | IC50 ([3]; Homo sapiens, G-401, 72 hours) [µM] | IC50 ([3]; 72 hours) [µM]
0.0146 | 0.0057 |  | CC(C)(O)c1c(F)cc(-c2cnc(NCc3c(F)ccc4c3CCO4)n3cnnc23)c2ncnn12 [2-(6-fluoro-8-(5-(((5-fluoro-2,3-dihydrobenzofuran-4-yl)methyl)amino)-[1,2,4]triazolo[4,3-c]pyrimidin-8-yl)-[1,2,4]triazolo[1,5-a]pyridin-5-yl)propan-2-ol] | 0.0059 |  |  | 
0.0065 | 0.0084 |  | Cc1nc2c(-c3cnc(NCc4c(F)ccc5c4CCO5)n4cnnc34)cnc(C(C)(C)O)n2n1 [2-(8-(5-(((5-fluoro-2,3-dihydrobenzofuran-4-yl)methyl)amino)-[1,2,4]triazolo[4,3-c]pyrimidin-8-yl)-2-methyl-[1,2,4]triazolo[1,5-c]pyrimidin-5-yl)propan-2-ol] | 0.0006 |  |  | 
0.0052 | 0.0075 |  | CCC(C)(O)c1ccc(-c2cnc(NCc3c(F)ccc4c3CCO4)n3cnnc23)c2ncnn12 (stereo not drawn) [2-(8-(5-(((5-fluoro-2,3-dihydrobenzofuran-4-yl)methyl)amino)-[1,2,4]triazolo[4,3-c]pyrimidin-8-yl)-[1,2,4]triazolo[1,5-a]pyridin-5-yl)butan-2-ol] | 0.0021 |  |  | 
0.0066 | 0.0062 |  | CC(C)(O)c1ncc(-c2cnc(NCc3c(F)ccc4c3CCO4)n3cnnc23)c2ncnn12 [2-(8-(5-(((5-fluoro-2,3-dihydrobenzofuran-4-yl)methyl)amino)-[1,2,4]triazolo[4,3-c]pyrimidin-8-yl)-[1,2,4]triazolo[1,5-c]pyrimidin-5-yl)propan-2-ol] | 0.0028 |  |  | 

Continued, compound first:

SMILES | IC50 [1, 4] [µM] | IC50 [2] [µM] | IC50 ([1]; Karpas-422, 13 days) [µM] | IC50 ([3]; Homo sapiens, G-401, 72 h) [µM] | IC50 ([1]; Homo sapiens, KARPAS-422, 312 h) [µM] | IC50 ([3]; Homo sapiens, G-401, 72 hours) [µM] | IC50 ([3]; 72 hours) [µM]
OC(c1ccc(-c2cnc(NCc3c(F)ccc4c3CCO4)n3cnnc23)c2ncnn12)(C(F)F)C(F)F [1,1,3,3-tetrafluoro-2-(8-(5-(((5-fluoro-2,3-dihydrobenzofuran-4-yl)methyl)amino)-[1,2,4]triazolo[4,3-c]pyrimidin-8-yl)-[1,2,4]triazolo[1,5-a]pyridin-5-yl)propan-2-ol] | 0.0049 | 0.003 |  | 0.0012 |  |  | 
CC(O)(c1ccc(-c2cnc(NCc3c(F)ccc4c3CCO4)n3cnnc23)c2ncnn12)C(F)(F)F (single isomer, unassigned) [Compound d] |  | 0.0055 |  |  | 0.0087 | 0.0047 | 
CC(O)(CF)c1ccc(-c2cnc(NCc3c(F)ccc4c3CCO4)n3cnnc23)c2ncnn12 (stereo not drawn) [1-fluoro-2-[8-(5-{[(5-fluoro-2,3-dihydro-1-benzofuran-4-yl)methyl]amino}-[1,2,4]triazolo[4,3-c]pyrimidin-8-yl)-[1,2,4]triazolo[1,5-a]pyridin-5-yl]propan-2-ol] | 0.0022 | 0.0043 |  | 0.0011 |  |  | 
OC1(c2ccc(-c3cnc(NCc4c(F)ccc5c4CCO5)n4cnnc34)c3ncnn23)CCC1 [1-[8-(5-{[(5-fluoro-2,3-dihydro-1-benzofuran-4-yl)methyl]amino]-[1,2,4]triazolo[4,3-c]pyrimidin-8-yl)-[1,2,4]triazolo[1,5-a]pyridin-5-yl]cyclobutan-1-ol] | 0.0016 | 0.0055 |  | 0.0003 |  |  | 
CC(O)(CF)c1ccc(-c2cnc(NCc3c(F)ccc4c3CCO4)n3cnnc23)c2ncnn12 (single isomer, unassigned) [Compound g] | 0.0015 | 0.004 |  | 0.0006 |  |  | 
CC(O)(CF)c1ccc(-c2cnc(NCc3c(F)ccc4c3CCO4)n3cnnc23)c2ncnn12 (single isomer, unassigned) [Compound h] |  | 0.0048 | 0.0025 |  |  |  | 0.0012
CCC(O)c1ccc(-c2cnc(NCc3c(F)ccc4c3CCO4)n3cnnc23)c2ncnn12 (stereo not drawn) [1-(8-(5-(((5-fluoro-2,3-dihydrobenzofuran-4-yl)methyl)amino)-[1,2,4]triazolo[4,3-c]pyrimidin-8-yl)-[1,2,4]triazolo[1,5-a]pyridin-5-yl)propan-1-ol] | 0.0032 | 0.0065 |  | 0.0026 |  |  | 
CCC(O)c1ccc(-c2cnc(NCc3c(F)ccc4c3CCO4)n3cnnc23)c2ncnn12 (single isomer, unassigned) [Compound f] |  | 0.0066 | 0.0054 |  |  |  | 0.0013
